Results: patent US11192863B2, “Antiviral compounds and methods” (Biotron Limited, priority 2003, dated 2021)
Structures can show the parent of a compound that is named as a salt. Where two headings read alike, the source gives them in different places.

How the values were obtained:
Vpu protein = Vpu protein (Human immunodeficiency virus type 1 group M subtype B, UniProt P05919); details: halo of growth score between zero and six; XL1-blue E. coli with pPL-Vpu, no adenine, 37° C.
MHV (strain MHV-A59) = details: L929 cells
SARS-CoV E protein = SARS-CoV E protein (Severe acute respiratory syndrome coronavirus, UniProt P59637); type: cell-based
229E-CoV E-protein = 229E-CoV E-protein (Human coronavirus 229E, UniProt P19741); assay: Bacterial bio-assay for 229E-CoV E-protein; details: halo of growth score; E. coli expressing E protein at 37° C.
229E-CoV E-protein, sequence (P19741 whole entry): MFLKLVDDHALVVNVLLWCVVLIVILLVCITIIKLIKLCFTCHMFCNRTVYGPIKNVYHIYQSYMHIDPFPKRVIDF

Vpu protein, sequence (P05919 whole entry): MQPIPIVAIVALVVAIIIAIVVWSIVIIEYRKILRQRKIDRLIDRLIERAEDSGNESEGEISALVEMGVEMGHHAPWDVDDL
SARS-CoV E protein, sequence (P59637 whole entry, looked up): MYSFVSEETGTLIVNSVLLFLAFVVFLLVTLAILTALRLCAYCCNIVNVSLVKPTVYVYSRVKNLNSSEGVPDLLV

SMILES	Vpu Inhibition (score/# of times tested) (Vpu protein)	Percent reduction in Plaque number/# experiments (MHV (strain MHV-A59); 1 uM)	Percent reduction in Plaque number/# experiments (MHV (strain MHV-A59); 10 uM)	Percent reduction in Plaque number/# experiments (MHV (strain MHV-A59); 20 uM)	SARS E protein Inhibition (score/# of times tested) (SARS-CoV E protein)	229E E protein Inhibition (score) (229E-CoV E-protein)	Toxic (noted in place of plaque reduction) (MHV (strain MHV-A59); 20 uM)
Cc1ccccc1/C=C/C(=O)NC(=N)N [2-methylcinnamoylguanidine]	3.1/2 score	20/1%	82/1%	91/1%	1.00/1 score	0.5 score	–
N=C(N)NC(=O)/C=C/c1ccccc1F [2-fluorocinnamoylguanidine]	2.1/2 score	–	73/1%	76/1%	0.63/1 score	0.4 score	–
N=C(N)NC(=O)/C=C/c1ccccc1C1CCCCC1 [2-cyclohexylcinnamoylguanidine]	0.8/2 score	16/1%	74/2%	100/1%	1.83/1 score	0.8 score	–
NC(N)=NC(=O)c1ccc(Oc2ccccc2)cc1 [(4-Phenoxybenzoyl)guanidine]	0.81/2 score	32/1%	65/1%	73/1%	0.57/2 score	2.3 score	–
COc1cccc(/C=C/C(=O)NC(=N)N)c1 [(3-Methoxycinnamoyl)guanidine]	1.52/6 score	37/3%	87/2%	92/2%	0.63/2 score	1.4 score	–
N=C(N)NC(=O)/C=C/c1ccc(-c2ccccc2)cc1 [4-phenylcinnamoylguanidine]	1.1/2 score	21/3%	36/1%	53/1%	2.75/2 score	1.0 score	–
COc1ccc(/C=C/C(=O)NC(=N)N)cc1 [(4-Methoxycinnamoyl)guanidine]	2.13/3 score	51/3%	96/4%	98/4%	0.88/2 score	0.1 score	–
N=C(N)NC(=O)/C=C/c1cccc(-c2ccccc2)c1 [3-phenylcinnamoylguanidine]	2.54/3 score	64/3%	86/2%	–	3.13/1 score	2.9 score	Toxic
CC(C)(C)c1ccc(/C=C/C(=O)NC(=N)N)cc1 [4-t-butylcinnamoylguanidine]	0.19/2 score	–	–	–	4.00/1 score	4.0 score	–
NC(N)=NC(=O)c1nc(Cl)c(Nc2ccc(F)cc2)nc1N [5-(4-fluorophenyl)amiloride]	0.4/6 score	16/1%	25/1%	4/1%	1.38/1 score	1.8 score	–
N=C(N)NC(=O)/C=C/c1ccccc1-c1ccccc1 [2-phenylcinnamoylguanidine]	2.1/2 score	42/1%	100/1%	–	–	3.0 score	–
Cc1ccc(/C=C/C(=O)NC(=N)N)cc1 [4-methylcinnamoylguanidine]	2.1/2 score	20/1%	89/1%	93/1%	1.25/1 score	0.3 score	–
NC(N)=NC(=O)c1cccc2ccccc12 [1-napthoylguanidine]	0.3/2 score	2/3%	62/3%	71/3%	1.32/3 score	1.9 score	–
N=C(N)NC(=O)/C=C/c1cccc(F)c1F [2,3-difluorocinnamoylguanidine]	1.56/2 score	64/2%	92/3%	–	4.50/1 score	3.3 score	Toxic
COc1cc(/C=C/C(=O)NC(=N)N)cc(OC)c1OC [3,4,5-trimethoxycinnamoylguanidine]	–	21/1%	84/1%	84/1%	2.25/1 score	0.1 score	–
Cc1cc(C)c(C)c(/C=C/C(=O)NC(=N)N)c1C [2,3,5,6,-tetramethylcinnamoylguanidine]	1.6/2 score	0/1%	68/2%	–	1.00/1 score	0.3 score	–
N=C(N)NC(=O)/C=C/c1ccc(C(F)(F)F)cc1 [4-(trifluoromethyl)cinnamoylguanidine]	2.2/2 score	46/3%	95/3%	97/3%	2.75/1 score	2.3 score	–
Cc1cccc(/C=C/C(=O)NC(=N)N)c1C [2,3-dimethylcinnamoylguanidine]	3.1/2 score	34/1%	79/2%	95/1%	–	0.5 score	–
N=C(N)NC(=O)/C=C/c1ccc(F)cc1 [4-fluorocinnamoylguanidine]	1.1/2 score	20/1%	83/1%	86/1%	1.25/1 score	0.4 score	–
NC(N)=NC(=O)c1ccc2cc(C(=O)N=C(N)N)ccc2c1 [N,N′-Bis(amidino)napthalene-2,6-dicarboxamide]	–	0/1%	16/1%	19/1%	0.25/2 score	0.3 score	–
CCOc1cccc(/C=C/C(=O)NC(=N)N)c1 [3-ethoxycinnamoylguanidine]	1.9/2 score	58/1%	89/2%	100/1%	–	0.3 score	–
N=C(N)NC(=O)/C=C/c1cc(Br)ccc1F [5-bromo-2-fluorocinnamoylguanidine]	3.5/2 score	31/1%	81/2%	–	2.00/1 score	1.4 score	Toxic
N/C(=N\C(=O)c1nc(Cl)c(N)nc1N)NCc1ccccc1 [Benzamil hydrochloride, N-Benzyl-N′-(3,5-diamino-6-chloro-pyrzine-2-carbonyl)-guanidine]	0.9/3 score	0/1%	26/1%	0/1%	1.32/2 score	–	–
N=C(N)NC(=O)c1ccc2ccccc2c1Br [1-bromo-2-napthoylguanidine]	0.06/2 score	27/1%	27/2%	31/1%	0.25/1 score	–	–
N=C(N)NC(=O)/C=C/c1ccc(F)c(F)c1 [3,4-difluorocinnamoylguanidine]	2.06/2 score	50/1%	91/2%	–	–	0.4 score	Toxic
CC(C)c1cccc(/C=C/C(=O)NC(=N)N)c1.Cl [3-isopropylcinnamoylguanidine hydrochloride]	2.6/2 score	32/1%	99/2%	–	–	4.0 score	–
Cc1cc(C)c(/C=C/C(=O)NC(=N)N)c(C)c1 [2,4,6-trimethylcinnamoylguanidine]	1.4/2 score	27/2%	61/3%	91/2%	–	0.9 score	–
